# Test results taken from patent US6379720B1, “Compositions containing hops extract and their use in water systems and process streams to control biological fouling” (Nalco Chemical Company, priority 2000, dated 2002).
# Where “and” joins values, the source holds several entries; their conditions need not be identical. Identical values can stand only once.
# System: Scenedesmus obliquus green algae
# Assay: Synergism test of hops extract/biocide combinations (Kull Synergism Index), chlorophyll OD 650 nm endpoint
# Type: cell-based
# Source text: The accepted method used to determined synergism is described by Kull, F. C., Eisman, P. C., Sylwestrowicz, H. D., and Mayer, R. L. in Applied Microbiology 9:538-541 (1961), and is well known in the art.
# The equation for determining synergism is as follows:
# QaQA+Qb/QB=Synergism Index (SI)
# Where QA and QB are the concentrations of compounds A or B that produce an endpoint when acting alone, and where Qa and Qb are the concentrations of compounds A or B acting in the A/B combination required to produce an endpoint. The endpoint is defined by the particular test method, for example, an optical density.
# To determine synergism, one evaluates the Synergism Index (SI).
# The efficacy of the invention was tested in the following manner:
# Scenedesmus obliquus green algae cells were prepared in synthetic cooling water (pH 8.2) to a concentration of 10^7 CFU/ml. 100 ul of the algae suspension were added to 200 ul aliquots of hops extract antimicrobial compositions in synthetic cooling water contained in 96 well microplates (FALCON® 3075). A wide range of hops extract/biocide combinations were tested. Microplates were covered with the provided lid and incubated at 25° C. for six days with 16 hour/8 hour light/dark cycles (cool-white fluorescent lamps, 1255 lux). Following incubation, supernatant was removed from each microplate well by vacuum aspiration. […] 200 ul of dimethylsulfoxide (DMSO) were added to each microplate well to dissolve the algae cells and extract chlorophyll. The optical density at 650 nm of each extraction was determined using a plate reader (Beckman Biomek®).
# A wide range of ratios of the two active ingredients can be used, depending on several factors including the microorganisms to be controlled. In this example, data designated as QA and Qa in each case are for hops extract and data designated as QB and Qb are for the other antimicrobial (IZN, POLYQUAT, GLUT, TBTZ, DCOI, THPS, BNEF, DBNPA, and DTEA).
# [1] = with hops extract 8 ppm, Endpoint OD650 = 0.300
# [2] = with hops extract 16 ppm, Endpoint OD650 = 0.300
molecule,measurement,setting,value
"O=[N+]([O-])C(Br)=Cc1ccco1 [BNEF, 2-(2-bromo-2-nitroethenyl)furan]",QB (concentration of the antimicrobial that produces the endpoint when acting alone),"Endpoint OD650 = 0.300, (32) used for synergy calculations",>16 (32) ppm
same,Qb (concentration of the antimicrobial in the combination required to produce the endpoint),"with hops extract 4 ppm, Endpoint OD650 = 0.300",16 ppm
same,Qb (concentration of the antimicrobial in the combination required to produce the endpoint),[1],16 ppm
same,Qb (concentration of the antimicrobial in the combination required to produce the endpoint),[2],1 ppm
"N#CC(Br)(Br)C(N)=O [DBNPA, 2,2-dibromo-3-nitrilopropionamide]",QB (concentration of the antimicrobial that produces the endpoint when acting alone),"Endpoint OD650 = 0.200, (32) used for synergy calculations",>16 (32) ppm
same,Qb (concentration of the antimicrobial in the combination required to produce the endpoint),"with hops extract 4 ppm, Endpoint OD650 = 0.200",16 ppm
same,Qb (concentration of the antimicrobial in the combination required to produce the endpoint),"with hops extract 16 ppm, Endpoint OD650 = 0.200",16 ppm
"CCCCCCCCn1sc(Cl)c(Cl)c1=O [DCOI, 4,5-dichloro-2-n-octyl-4-isothiazolin-3-one]",QB (concentration of the antimicrobial that produces the endpoint when acting alone),"Endpoint OD650 = 0.150, (32) used for synergy calculations",>16 (32) ppm
same,Qb (concentration of the antimicrobial in the combination required to produce the endpoint),"with hops extract 4 ppm, Endpoint OD650 = 0.150",16 ppm
same,Qb (concentration of the antimicrobial in the combination required to produce the endpoint),"with hops extract 64 ppm, Endpoint OD650 = 0.150",8 ppm and 16 ppm
"CCCCCCCCCCSCCN [DTEA, 2-(decylthio)ethanamine]",QB (concentration of the antimicrobial that produces the endpoint when acting alone),Endpoint OD650 = 0.300,16 ppm
same,Qb (concentration of the antimicrobial in the combination required to produce the endpoint),[1],4 ppm and 8 ppm
same,Qb (concentration of the antimicrobial in the combination required to produce the endpoint),[2],1 ppm and 2 ppm
"O=CCCCC=O [GLUT, glutaraldehyde]",QB (concentration of the antimicrobial that produces the endpoint when acting alone),"Endpoint OD650 = 0.250, (32) used for synergy calculations",>16 (32) ppm
same,Qb (concentration of the antimicrobial in the combination required to produce the endpoint),"with hops extract 16 ppm, Endpoint OD650 = 0.250",4 ppm
"CCNc1nc(Cl)nc(NC(C)(C)C)n1 [TBTZ, 2-(tert-butylamino)-4-chloro-6(ethylamino)-s-triazine]",QB (concentration of the antimicrobial that produces the endpoint when acting alone),Endpoint OD650 = 0.250,16 ppm
methylchloro/isothiazolone [IZN],QB (concentration of the antimicrobial that produces the endpoint when acting alone),"Endpoint OD650 = 0.100, (32) used for synergy calculations",>16 (32) ppm
same,Qb (concentration of the antimicrobial in the combination required to produce the endpoint),"with hops extract 16 ppm, Endpoint OD650 = 0.100",16 ppm
same,Qb (concentration of the antimicrobial in the combination required to produce the endpoint),"with hops extract 32 ppm, Endpoint OD650 = 0.100",16 ppm
same,Qb (concentration of the antimicrobial in the combination required to produce the endpoint),"with hops extract 64 ppm, Endpoint OD650 = 0.100",8 ppm and 16 ppm
same,Qb (concentration of the antimicrobial in the combination required to produce the endpoint),"with hops extract 128 ppm, Endpoint OD650 = 0.100",8 ppm and 16 ppm
same,Qb (concentration of the antimicrobial in the combination required to produce the endpoint),"with hops extract 256 ppm, Endpoint OD650 = 0.100",8 ppm
tetrakishydroxymethyl phosphonium sulfate [THPS],QB (concentration of the antimicrobial that produces the endpoint when acting alone),Endpoint OD650 = 0.250,16 ppm
same,Qb (concentration of the antimicrobial in the combination required to produce the endpoint),"with hops extract 4 ppm, Endpoint OD650 = 0.250",4 ppm
same,Qb (concentration of the antimicrobial in the combination required to produce the endpoint),"with hops extract 8 ppm, Endpoint OD650 = 0.250",4 ppm and 8 ppm
